SMILES strings stand for the structures.

The values below come from patent US6462063B1, “C-proteinase inhibitors” (Fibrogen, Inc., priority 2000, dated 2002).

The target in the assay is T1, recombinant human C-proteinase (Homo sapiens, UniProt P13497).
T1 sequence (P13497 121-986): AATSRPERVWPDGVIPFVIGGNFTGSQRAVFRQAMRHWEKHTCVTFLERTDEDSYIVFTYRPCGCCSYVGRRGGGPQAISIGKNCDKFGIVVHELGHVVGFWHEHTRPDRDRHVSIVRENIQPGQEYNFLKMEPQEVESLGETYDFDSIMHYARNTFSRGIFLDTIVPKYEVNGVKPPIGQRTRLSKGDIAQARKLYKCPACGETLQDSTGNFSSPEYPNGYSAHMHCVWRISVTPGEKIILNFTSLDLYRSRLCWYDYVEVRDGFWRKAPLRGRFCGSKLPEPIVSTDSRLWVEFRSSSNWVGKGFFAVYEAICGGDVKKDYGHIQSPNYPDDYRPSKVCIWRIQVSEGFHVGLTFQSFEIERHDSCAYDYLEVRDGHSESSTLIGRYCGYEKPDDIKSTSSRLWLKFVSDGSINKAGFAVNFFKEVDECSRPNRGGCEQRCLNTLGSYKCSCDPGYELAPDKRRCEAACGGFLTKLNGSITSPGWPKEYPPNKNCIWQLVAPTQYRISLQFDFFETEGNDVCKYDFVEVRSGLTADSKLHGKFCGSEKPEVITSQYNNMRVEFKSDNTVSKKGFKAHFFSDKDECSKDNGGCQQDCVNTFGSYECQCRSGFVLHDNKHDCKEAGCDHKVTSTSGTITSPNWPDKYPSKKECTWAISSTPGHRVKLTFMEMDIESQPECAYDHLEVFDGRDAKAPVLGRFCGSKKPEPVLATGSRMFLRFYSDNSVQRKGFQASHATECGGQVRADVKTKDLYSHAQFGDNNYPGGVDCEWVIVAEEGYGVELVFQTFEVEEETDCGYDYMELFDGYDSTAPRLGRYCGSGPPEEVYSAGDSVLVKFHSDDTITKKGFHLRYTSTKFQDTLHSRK
The experiment in a line: C-Proteinase IC50 assay, fluorogenic peptide. In kind it is biochemical. The settings on record: 50 μM fluorogenic peptide, pH 7.6, 4 hours at 37° C., fluorescence, read-out: C-Proteinase Inhibitor IC50. The procedure:
The following assay may be used to determine the level of activity and effect of the different compounds of the present invention on C-proteinase activity. […] The reaction proceeded for 4 hours at 37° C. and the fluorescence was measured using a Bio-Tek Fl-600.
Usually IC50 stands for the concentration that inhibits the measured activity by half. On to `COc1cccc(CN2C(=O)N(C34CC5CC(CC(C5)C3)C4)C(=O)C2CCCC(=O)NO)c1O` (stereo not drawn) [Compound 168], for which the concentration for half-maximal inhibition (IC50) amounted to 430 nM.

On to `O=C(CCCC1C(=O)N(C23CC4CC(CC(C4)C2)C3)C(=O)N1CC1CCCCC1)NO` (stereo not drawn) [Compound 127], for which the IC50 came to 290 nM.

Take `O=C(CCCC1C(=O)N(C2CCCCC2)C(=O)N1Cc1cccc(O)c1)NO` (stereo not drawn) [Compound 198]: the concentration for half-maximal inhibition (IC50) was 1240 nM.

Take `COc1ccc(O)c(CN2C(=O)N(C34CC5CC(CC(C5)C3)C4)C(=O)C2CCCC(=O)NO)c1` (stereo not drawn) [Compound 139]: the IC50 came to 260 nM.

On to `O=C(CSCC1C(=O)N(C23CC4CC(CC(C4)C2)C3)C(=O)N1Cc1ccccn1)NO` (stereo not drawn) [Compound 199], for which the IC50 is 290 nM.

In the case of `O=C(CCCC1C(=O)N(C23CC4CC(CC(C4)C2)C3)C(=O)N1Cc1ccccc1)NO` (stereo not drawn) [Compound 102], the IC50 was 770 nM.

Take `O=C(CCCC1C(=O)N(C23CC4CC(CC(C4)C2)C3)C(=O)N1CC1CC2C=CC1C2)NO` (stereo not drawn) [Compound 128]: the IC50 was 400 nM.

Turning to `O=C(CCCC1C(=O)N(C23CC4CC(CC(C4)C2)C3)C(=O)N1Cc1cccc(O)c1)NO` (stereo not drawn) [Compound 161], the IC50 is 140 nM.

As for `O=C(CCCC1C(=O)N(C23CC4CC(CC(C4)C2)C3)C(=O)N1Cc1cccc2c1OCO2)NO` (stereo not drawn) [Compound 179], the IC50 was 230 nM.

`O=C(CCCC1C(=O)N(C2CCCCC2)C(=O)N1Cc1ccccc1O)NO` (stereo not drawn) [Compound 195]: the IC50 is 1080 nM.

In the case of `O=C(CCCC1C(=O)N(C23CC4CC(CC(C4)C2)C3)C(=O)N1CC1CC1)NO` (stereo not drawn) [Compound 131], the half-maximal inhibitory concentration (IC50) was determined as 430 nM.

On to `O=C(CCCC1C(=O)N(C2CCCCC2)C(=O)N1Cc1ccccc1)NO` (stereo not drawn) [Compound 107], for which the IC50 amounted to 3330 nM.

On to `O=C(CCCC1C(=O)N(C23CC4CC(CC(C4)C2)C3)C(=O)N1Cc1cc(O)ccc1O)NO` (stereo not drawn) [Compound 137], for which the IC50 is 59 nM.

`O=C(CCCC1C(=O)N(C23CC4CC(CC(C4)C2)C3)C(=O)N1CC1=COCCC1)NO` (stereo not drawn) [Compound 192]: the IC50 was 210 nM.

As to `COc1ccccc1CN1C(=O)N(C23CC4CC(CC(C4)C2)C3)C(=O)C1CCCC(=O)NO` (stereo not drawn) [Compound 163], the IC50 is 600 nM.

`O=C(CCCC1C(=O)N(C23CC4CC(CC(C4)C2)C3)C(=O)N1Cc1ccccn1)NO` (stereo not drawn) [Compound 174]: the IC50 was 210 nM.

Consider `O=C(CCCC1C(=O)N(C23CC4CC(CC(C4)C2)C3)C(=O)N1Cc1ccccc1O)NO` (stereo not drawn) [Compound 155], for which the half-maximal inhibitory concentration (IC50) was determined as 270 nM.

Regarding `O=C(CCCC1C(=O)N(C23CC4CC(CC(C4)C2)C3)C(=O)N1Cc1ccco1)NO` (stereo not drawn) [Compound 176], the IC50 is 230 nM.
